# Laboratory results reported in patent US20140206017A1, “LYSYL OXIDASE-LIKE 2 ASSAY AND METHODS OF USE THEREOF” (priority 2011, published 2014).
# Several values for one entry are separate records, joined by “and”; a condition that tells them apart may be missing. Equal values may be shown once. Where a name gives a salt, the structure may show the parent alone.
# T1: LOXL2 (Homo sapiens, UniProt Q9Y4K0)
# T1 construct: from tissue; host or cells: plasma and serum of human cancer patients
# T1 sequence (Q9Y4K0 26-774): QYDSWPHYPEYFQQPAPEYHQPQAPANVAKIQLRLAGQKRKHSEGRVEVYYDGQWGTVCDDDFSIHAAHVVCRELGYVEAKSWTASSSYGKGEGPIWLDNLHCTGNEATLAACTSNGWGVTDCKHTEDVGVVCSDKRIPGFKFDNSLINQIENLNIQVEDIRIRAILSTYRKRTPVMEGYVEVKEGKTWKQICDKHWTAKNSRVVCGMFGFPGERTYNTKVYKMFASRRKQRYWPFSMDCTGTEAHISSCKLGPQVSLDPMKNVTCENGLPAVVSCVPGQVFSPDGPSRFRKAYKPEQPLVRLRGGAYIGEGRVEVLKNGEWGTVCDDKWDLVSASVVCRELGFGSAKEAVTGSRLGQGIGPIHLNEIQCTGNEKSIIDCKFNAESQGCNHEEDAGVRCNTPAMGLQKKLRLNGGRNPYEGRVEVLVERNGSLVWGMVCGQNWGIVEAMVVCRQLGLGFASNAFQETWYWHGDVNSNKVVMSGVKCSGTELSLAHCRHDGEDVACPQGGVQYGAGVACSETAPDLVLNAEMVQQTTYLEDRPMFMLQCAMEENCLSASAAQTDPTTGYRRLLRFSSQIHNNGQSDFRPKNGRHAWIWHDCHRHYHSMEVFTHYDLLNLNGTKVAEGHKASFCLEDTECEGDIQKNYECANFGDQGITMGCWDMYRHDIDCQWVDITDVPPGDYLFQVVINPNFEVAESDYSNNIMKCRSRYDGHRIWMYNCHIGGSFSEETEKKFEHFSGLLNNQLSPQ
# B1: AB0024: humanized anti-LOXL2 monoclonal antibody; inhibits LOXL2 enzymatic activity, binds epitope within SRCR3-4; VH SEQ ID NO:8, VL SEQ ID NO:9 (antibody, V domains shown)
# VH: QVQLVQSGAEVKKPGASVKVSCKASGYAFTYYLIEWVRQAPGQGLEWIGVINPGSGGTNYNEKFKGRATITADKSTSTAYMELSSLRSEDTAVYFCARNWMNFDYWGQGTTVTVSS
# VL: DIVMTQTPLSLSVTPGQPASISCRSSKSLLHSNGNTYLYWFLQKPGQSPQFLIYRMSNLASGVPDRFSGSGSGTDFTLKISRVEAEDVGVYYCMQHLEYPYTFGGGTKVEIK
# Assays:
# [1] = system: liver fibrosis in subjects with chronic hepatitis B (CHB); assay: Liver biopsy (Ishak fibrosis score) in CHB subjects before and after 240 weeks of TDF; type: in vivo, human; settings: for Chance of regression of cirrhosis at week 240: cirrhotic subjects
# Description: Serum LOXL2 levels were assessed in subjects with chronic hepatitis B (CHB) and liver fibrosis, both before treatment and after 240 weeks of treatment with 300 mg tenofovir disoproxil fumarate (TDF). Liver biopsies were taken from 348 human subjects with CHB, prior to treatment and after 240 weeks of treatment with TDF. The biopsies were scored by pathologists using the Ishak scale for assessment of fibrosis. […] Of the 96 subjects who began the study with biopsy-proven cirrhosis, 74% had regression of cirrhosis after 240 weeks of treatment. […] At week 240 following treatment, 42 of these 81 subjects had cirrhosis regression, 16 had persistent cirrhosis, 2 had progressed to cirrhosis over the course of treatment, 18 were non-cirrhotic subjects with no change in fibrosis, and 3 were non-cirrhotic subjects with at least a 2-point reduction in fibrosis as measured by Ishak.
# [2] = system: serum LOXL2; assay: Serum LOXL2 by ELISA at baseline and week 240 of TDF treatment in CHB subjects; type: in vivo, human; settings: for Median serum LOXL2: LOQ = 440 pg/mL
# Text: At week 240 following treatment, 42 of these 81 subjects had cirrhosis regression, 16 had persistent cirrhosis, 2 had progressed to cirrhosis over the course of treatment, 18 were non-cirrhotic subjects with no change in fibrosis, and 3 were non-cirrhotic subjects with at least a 2-point reduction in fibrosis as measured by Ishak.
# [3] = system: cancer; assay: Cancer patients treated with anti-LOXL2 antibody AB0024: time to progression; type: in vivo, human; settings: individual cancer patients
# Text: Blood samples were obtained at Day 1 on which anti-LOXL2 treatment began (sample taken before anti-LOXL2 treatment); and on days 29 and 57 following the beginning of anti-LOXL2 treatment.
# [4] = target: T1, LOXL2; assay: LOXL2 immunoassay of plasma/serum from patients receiving AB0024; type: in vivo; settings: samples day 1 (pre-dose), 29 and 57
# Description: Standard single-spot uncoated electrode plates from MesoScale Discovery (MSD) (cat #L15XA-3) were coated overnight at 4° C. with a 30 μl volume of a solution of 3 μg/ml rabbit anti-human-LOXL2 polyclonal antibody formulated in phosphate-buffered saline (PBS). After coating, the wells of the plates were blocked by addition of a solution of 5% (w/v) Blocker A (MSD cat#R93AA-1) in PBS. After the blocking step, plates were washed 3 times in PBS containing 0.05% Tween-20 non-ionic detergent, using an automated plate washer. Human samples to be tested (serum or plasma) were prepared separately by diluting them 1:4 in PBS (1 part serum, 3 parts PBS). Samples were then added to each well of the plate. Samples were incubated with rotary shaking (300-600 rpm) for 2-3 hours at room temperature. After sample binding, the plates were again washed 3 times in PBS containing 0.05% Tween-20 detergent, using an automated plate washer. […]
# 1× Read Buffer T with Surfactants (MSD cat#R92TC-2) was added to each well, followed by immediate measurement of the plate on the MSD SectorImager 2400 instrument.
# Test human samples were given a relative quantitative value of LOXL2 by comparison to the calibrator curve on the same assay plate, comprised of purified recombinant human LOXL2 protein (R&D Systems) added in known concentrations to human serum or plasma pooled from normal healthy donors. […]
# [5] = Wk 240, Persistent Cirrhosis (n = 16), baseline 31%
# [6] = baseline to Wk 240, Non-Cirrhotic No Δ (n = 18)
# [7] = baseline to Wk 240, Persistent Cirrhosis (n = 16)
# [8] = baseline to Wk 240, Reversed Cirrhosis (n = 42)
molecule,measurement,setting,value
"CC(C)OC(=O)OCOP(=O)(CO[C@H](C)Cn1cnc2c(N)ncnc21)OCOC(=O)OC(C)C [TDF, tenofovir disoproxil fumarate]","Subjects with improvement in, or no progression of, liver fibrosis","[1]; 348 CHB subjects, 300 mg, 240 weeks",96.3%
same,Chance of regression of cirrhosis at week 240,[1]; baseline serum LOXL2 above 3000 pg/mL,29%
same,Chance of regression of cirrhosis at week 240,[1]; baseline serum LOXL2 between 1500 and 3000 pg/mL,70%
same,Chance of regression of cirrhosis at week 240,[1]; baseline serum LOXL2 less than 1500 pg/mL,88%
same,Patients with regression or improvement of Ishak fibrosis score,"[1]; of the 60 patients with baseline cirrhosis, 240 weeks",72%
same,Subjects with regression of cirrhosis,"[1]; of the 96 subjects with biopsy-proven cirrhosis at start, after 240 weeks",74%
same,Mean serum LOXL2,"[2]; Week 240, Ishak Stage 0-3, N 56 (baseline 510.2, N 18)",746.8 pg/mL
same,Mean serum LOXL2,"[2]; Week 240, Ishak Stage 4-6, N 25 (baseline 3298.2, N 63)",753.5 pg/mL
same,Mean serum LOXL2,"[2]; Week 240, all subjects N 81 (baseline 2678.6)",748.9 pg/mL
same,Subjects with serum LOXL2 >3000 pg/mL,"[2]; Wk 240, Non-Cirrhotic No Δ (n = 18), baseline 6%",0 (0%)
same,Subjects with serum LOXL2 <LoD,"[2]; Wk 240, Non-Cirrhotic No Δ (n = 18), baseline 22%",8 (44%)
same,Subjects with serum LOXL2 <LoQ,"[2]; Wk 240, Non-Cirrhotic No Δ (n = 18), baseline 56%",14 (78%)
same,Subjects with serum LOXL2 <1000 pg/mL,"[2]; Wk 240, Non-Cirrhotic No Δ (n = 18), baseline 72%",15 (83%)
same,Mean serum LOXL2,"[2]; Wk 240, Non-Cirrhotic No Δ (n = 18), baseline 798.4",436.8 pg/mL
same,Median serum LOXL2,"[2]; Wk 240, Non-Cirrhotic No Δ (n = 18), baseline <LOQ",<LOQ
same,Subjects with serum LOXL2 <LoD,"[2]; Wk 240, Persistent Cirrhosis (n = 16), baseline 6%",2 (13%)
same,Subjects with serum LOXL2 <LoQ,"[2]; Wk 240, Persistent Cirrhosis (n = 16), baseline 13%",8 (50%)
same,Subjects with serum LOXL2 <1000 pg/mL,[2]; [5],14 (88%)
same,Subjects with serum LOXL2 >3000 pg/mL,[2]; [5],0 (0%)
same,Median serum LOXL2,"[2]; Wk 240, Persistent Cirrhosis (n = 16), baseline 1863",LOQ
same,Mean serum LOXL2,"[2]; Wk 240, Persistent Cirrhosis (n = 16), baseline 9124.1",603.8 pg/mL
same,Subjects with serum LOXL2 <LoD,"[2]; Wk 240, Reversed Cirrhosis (n = 42), baseline 2%",13 (31%)
same,Subjects with serum LOXL2 >3000 pg/mL,"[2]; Wk 240, Reversed Cirrhosis (n = 42), baseline 5%",3 (7%)
same,Subjects with serum LOXL2 <LoQ,"[2]; Wk 240, Reversed Cirrhosis (n = 42), baseline 10%",29 (69%)
same,Subjects with serum LOXL2 <1000 pg/mL,"[2]; Wk 240, Reversed Cirrhosis (n = 42), baseline 48%",35 (83%)
same,Median serum LOXL2,"[2]; Wk 240, Reversed Cirrhosis (n = 42), baseline 1073",<LOQ
same,Mean serum LOXL2,"[2]; Wk 240, Reversed Cirrhosis (n = 42), baseline 1355.0",922.6 pg/mL
same,Subjects with Decrease in serum LOXL2,[2]; [6],9 (50%)
same,Subjects with Increase in serum LOXL2,[2]; [6],2 (11%)
same,Subjects with Decrease in serum LOXL2,[2]; [7],14 (88%)
same,Subjects with Increase in serum LOXL2,[2]; [7],0 (0%)
same,Subjects with Decrease in serum LOXL2,[2]; [8],37 (88%)
same,Subjects with Increase in serum LOXL2,[2]; [8],5 (12%)
same,Cirrhotic subjects with a reduction in LOXL2 levels,[2]; baseline to week 240,88%
same,Subjects with a reduction in serum LOXL2 levels,"[2]; of the 81 subjects, baseline to week 240",79%
same,Subjects with no change in LOXL2 levels,"[2]; of the 81 subjects, each with baseline below limit of quantitation",11%
B1,Time to progression,[3]; dose level 1 mpk,44 days and Stable and 57 days
same,Time to progression,[3]; dose level 3 mpk,38 days and 56 days and 42 days
same,Time to progression,[3]; dose level 10 mpk,57 days and 30 days and 51 days
same,Effect of antibody administration on LOXL2 signal in plasma/serum,[4],did not clear or mask the LOXL2 signal
